Reference: patent US5298494A, “Monosaccharides having anti-proliferation and anti-inflammatory activity, compositions and uses thereof” (Greenwich Pharmaceuticals Incorporated, priority 1993, dated 1994)

What was measured:
[1] = test system: T cell proliferation in mouse spleen cell mixed lymphocyte cultures; assay: Mixed Lymphocyte Reaction (MLR) assay; type: cell-based, mouse (Balb/c responder, C57B1/6 stimulator)
Procedure, shortened: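 Balb/c responder spleen cells (2.5×10^5) co-cultured with mitomycin C-treated C57Bl/6 stimulators (5×10^5) for 5 days at 37 C with compound dilutions of 3–300 uM or DMSO. Proliferation read by MTT (OD 570-650 nm). Allogeneic minus syngeneic means were expressed as % change from vehicle control.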

[2] = test system: Interleukin 1 (IL-1) production by peritoneal macrophages; assay: IL-1 Assay: production of interleukin-1 by peritoneal macrophages (thymocyte bioassay); type: cell-based, mouse (C57B1/6); set-up: inhibition: dose or concentration left out as unconfirmed
Description: Interleukin 1 (IL-1) is a potent immunomodulatory cytokine that has a broad range of pro-inflammatory activities. IL-1 is known to be produced by activated accessory cells such as macrophages. Accessory cell production of IL-1 results in the activation and proliferation of T and B lymphocytes. Therefore, by inhibiting macrophage activation and production of IL-1, the activation and proliferation of the cellular effectors of inflammation can be modulated. Compounds of the invention were screened for inhibitory activity in a classical IL-1 assay. Six to 8 week old male C57B1/6 mice were purchased from Harlan Sprague Dawley. Peritoneal macrophages were elicited by the administration to mice of a single intraperitoneal injection of 0.2 ml of complete Freund's adjuvant. After 48 hours, elicited macrophages were removed from the mice by lavage with the use of Hank's balanced salt solution. […] To the macrophage cultures were added various doses of the compounds of the invention and 10 ug/ml of the macrophage activator lipopolysaccharide (to stimulate IL-1 production). Control cultures consisted of macrophages, lipopolysaccharide and culture medium containing various doses of DMSO only. […] The amount of IL-1 produced in the individual wells was determined in a bioassay for IL-1. This involved the removal of thymuses from mice less than 8 weeks of age. Thymocytes were isolated by passing each thymus through a stainless steel mesh screen. […] After 18 hours cells were harvested and radioactive incorporation (as a measure of cell proliferation) was quantitated in a liquid scintillation counter. The students t test was used to determine the significance of the difference between experimental and control values.

CCCCCCCOC[C@H]1O[C@@]2(OC)COC(C)(C)O[C@H]2[C@@H]1O [Ia, methyl 1,3-O-isopropylidene-6-O-heptyl-α-D-fructofuranoside]
Mean O.D. Allogenic ([1]; 3 um): 0.375 O.D.
Mean O.D. Syngeneic ([1]; 3 um): 0.193 O.D.
Mean O.D. Allogenic ([1]; 10 um): 0.361 O.D.
Mean O.D. Syngeneic ([1]; 10 um): 0.175 O.D.
Mean O.D. Allogenic ([1]; 30 um): 0.334 O.D.
Mean O.D. Syngeneic ([1]; 30 um): 0.167 O.D.
Mean O.D. Allogenic ([1]; 100 um): 0.429 O.D.
Mean O.D. Syngeneic ([1]; 100 um): 0.192 O.D.
Mean O.D. Allogenic ([1]; 300 um): 0.162 O.D.
Mean O.D. Syngeneic ([1]; 300 um): 0.107 O.D.
inhibition at 3 µM ([1]; Mus musculus, Lymphocyte, 3 um, read-out: % Change From Control, MLR): 5%
inhibition at 10 µM ([1]; Mus musculus, Lymphocyte, 10 um, read-out: % Change From Control, MLR): 3%
inhibition at 30 µM ([1]; Mus musculus, Lymphocyte, 30 um, read-out: % Change From Control, MLR): 13%
inhibition at 100 µM ([1]; Mus musculus, Lymphocyte, 100 um, read-out: % Change From Control, MLR): -23%
inhibition at 300 µM ([1]; Mus musculus, Lymphocyte, 300 um, read-out: % Change From Control, MLR): 71%
^3 H-Thymidine uptake by thymocytes ([2]; 0.001 ug/ml): 10,550 cpm
^3 H-Thymidine uptake by thymocytes ([2]; 0.01 ug/ml): 10,960 cpm
^3 H-Thymidine uptake by thymocytes ([2]; 0.1 ug/ml): 10,265 ± 227 cpm
^3 H-Thymidine uptake by thymocytes ([2]; 1 ug/ml): 10,777 ± 1,903 cpm
^3 H-Thymidine uptake by thymocytes ([2]; 2.5 ug/ml): 8,250 ± 705 cpm
^3 H-Thymidine uptake by thymocytes ([2]; 10 ug/ml): 4,970 ± 410 cpm
^3 H-Thymidine uptake by thymocytes ([2]; 25 ug/ml): 3,210 ± 149 cpm
^3 H-Thymidine uptake by thymocytes ([2]; 100 ug/ml): 2,215 ± 643 cpm
inhibition at 0.001 µg/mL ([2]; Mus musculus, Peritoneal macrophage, 0.001 ug/ml, read-out: % effect on IL-1 production (thymidine uptake by thymocytes)): 3%
inhibition at 0.01 µg/mL ([2]; Mus musculus, Peritoneal macrophage, 0.01 ug/ml, read-out: % effect on IL-1 production (thymidine uptake by thymocytes)): -1%
inhibition at 0.1 µg/mL ([2]; Mus musculus, Peritoneal macrophage, 0.1 ug/ml, read-out: % effect on IL-1 production (thymidine uptake by thymocytes)): 8%
inhibition at 2.5 µg/mL ([2]; Mus musculus, Peritoneal macrophage, 2.5 ug/ml, read-out: % effect on IL-1 production (thymidine uptake by thymocytes)): 28%
inhibition at 10 µg/mL ([2]; Mus musculus, Peritoneal macrophage, 10 ug/ml, read-out: % effect on IL-1 production (thymidine uptake by thymocytes)): 51%
inhibition at 25 µg/mL ([2]; Mus musculus, Peritoneal macrophage, 25 ug/ml, read-out: % effect on IL-1 production (thymidine uptake by thymocytes)): 63%
inhibition at 100 µg/mL ([2]; Mus musculus, Peritoneal macrophage, 100 ug/ml, read-out: % effect on IL-1 production (thymidine uptake by thymocytes)): 75%
inhibition ([2]; Mus musculus, Peritoneal macrophage, read-out: % effect on IL-1 production (thymidine uptake by thymocytes)): 2%
